Data from ChEMBL document CHEMBL2440060, “Identification of a Novel and Selective Series of Itk Inhibitors via a Template-Hopping Strategy” (ACS Med Chem Lett, 2013).

Key:
Aurora kinase B [1] = target: T1, Aurora kinase B (Homo sapiens, UniProt Q96GD4); experiment: Inhibition of Aurora-B (unknown origin) using 5FAM-PKAtide as substrate after 120 mins
[2] = target: T2, Tyrosine-protein kinase ITK/TSK (Homo sapiens, UniProt Q08881); experiment: Inhibition of recombinant human FLAG-tagged ITK using biotinylated GST-SAM68 as substrate after 30 mins
T2 sequence (Q08881 whole entry): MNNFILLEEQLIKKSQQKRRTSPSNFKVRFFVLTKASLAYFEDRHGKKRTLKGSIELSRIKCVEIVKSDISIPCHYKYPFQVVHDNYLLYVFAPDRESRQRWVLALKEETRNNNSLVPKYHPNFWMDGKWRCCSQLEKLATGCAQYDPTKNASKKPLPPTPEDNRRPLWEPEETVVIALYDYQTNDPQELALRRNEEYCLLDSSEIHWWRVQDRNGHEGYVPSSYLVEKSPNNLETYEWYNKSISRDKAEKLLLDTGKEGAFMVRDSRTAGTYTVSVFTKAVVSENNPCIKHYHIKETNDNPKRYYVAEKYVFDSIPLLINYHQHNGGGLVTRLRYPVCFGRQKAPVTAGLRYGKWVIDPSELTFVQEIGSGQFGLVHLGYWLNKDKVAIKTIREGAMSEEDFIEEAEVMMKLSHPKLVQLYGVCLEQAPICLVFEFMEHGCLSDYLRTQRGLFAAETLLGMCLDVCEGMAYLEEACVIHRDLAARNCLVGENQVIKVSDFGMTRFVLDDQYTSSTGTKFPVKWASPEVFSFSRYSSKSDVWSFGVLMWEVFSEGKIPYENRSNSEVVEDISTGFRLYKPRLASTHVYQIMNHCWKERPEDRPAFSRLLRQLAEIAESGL

[3] = target: T3, Tyrosine-protein kinase Lck (Homo sapiens, UniProt P06239); experiment: Inhibition of LCK (unknown origin) using tamra-p34cdc-derived peptide as substrate after 30 mins
PBMC = experiment: Inhibition of cytostim-induced IFNgamma production in human PBMC treated 1 hr before cytostim stimulation measured after 18 hrs by MSD assay; format: functional, cell-based
Aurora kinase B [4] = target: T1, Aurora kinase B; experiment: Inhibition of Aurora-B (unknown origin)
[5] = target: Proto-oncogene tyrosine-protein kinase Src (Homo sapiens, UniProt P12931); experiment: Inhibition of Src (unknown origin)
[6] = target: T3, Tyrosine-protein kinase Lck; experiment: Inhibition of LCK (unknown origin)
[7] = target: T4, Cytoplasmic tyrosine-protein kinase BMX (Homo sapiens, UniProt P51813); experiment: Inhibition of Bmx (unknown origin)
T4 sequence (P51813 whole entry): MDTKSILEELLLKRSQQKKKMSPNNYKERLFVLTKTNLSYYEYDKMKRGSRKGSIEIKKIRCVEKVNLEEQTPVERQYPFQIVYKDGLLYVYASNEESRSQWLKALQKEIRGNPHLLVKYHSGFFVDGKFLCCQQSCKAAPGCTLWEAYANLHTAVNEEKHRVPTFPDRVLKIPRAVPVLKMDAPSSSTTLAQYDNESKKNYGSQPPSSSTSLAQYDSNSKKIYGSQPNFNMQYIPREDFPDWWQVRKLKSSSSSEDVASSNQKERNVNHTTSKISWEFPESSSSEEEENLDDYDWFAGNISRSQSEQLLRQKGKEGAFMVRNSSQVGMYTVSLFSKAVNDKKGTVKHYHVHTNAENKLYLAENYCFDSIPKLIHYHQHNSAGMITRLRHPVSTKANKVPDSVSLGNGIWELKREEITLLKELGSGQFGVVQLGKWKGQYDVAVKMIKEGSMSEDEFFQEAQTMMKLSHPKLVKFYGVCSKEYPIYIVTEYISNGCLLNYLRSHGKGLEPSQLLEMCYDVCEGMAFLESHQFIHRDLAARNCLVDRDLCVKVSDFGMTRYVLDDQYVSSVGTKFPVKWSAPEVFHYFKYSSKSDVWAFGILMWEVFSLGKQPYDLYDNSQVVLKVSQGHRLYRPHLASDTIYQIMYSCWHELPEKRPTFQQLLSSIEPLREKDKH

[8] = target: Calcium/calmodulin-dependent protein kinase kinase 2 (Homo sapiens, UniProt Q96RR4); experiment: Inhibition of CAMKK2 (unknown origin)
[9] = target: T5, Tyrosine-protein kinase TXK (Homo sapiens, UniProt P42681); experiment: Inhibition of TXK (unknown origin)
T5 sequence (P42681 whole entry): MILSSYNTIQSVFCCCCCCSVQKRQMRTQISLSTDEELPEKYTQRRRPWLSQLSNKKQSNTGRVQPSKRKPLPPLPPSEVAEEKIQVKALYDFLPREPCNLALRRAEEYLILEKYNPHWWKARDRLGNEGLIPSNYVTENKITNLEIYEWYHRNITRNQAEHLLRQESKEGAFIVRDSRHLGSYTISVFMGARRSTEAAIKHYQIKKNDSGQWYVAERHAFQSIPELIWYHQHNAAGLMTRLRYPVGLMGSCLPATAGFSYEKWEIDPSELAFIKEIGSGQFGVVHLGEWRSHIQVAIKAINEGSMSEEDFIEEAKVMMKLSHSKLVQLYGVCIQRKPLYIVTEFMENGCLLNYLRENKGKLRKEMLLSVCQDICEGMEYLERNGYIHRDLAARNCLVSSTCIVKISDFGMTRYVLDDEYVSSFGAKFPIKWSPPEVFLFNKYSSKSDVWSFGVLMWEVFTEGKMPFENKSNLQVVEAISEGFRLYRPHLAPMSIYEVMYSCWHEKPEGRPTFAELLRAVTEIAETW

[10] = target: Tyrosine-protein kinase BTK (Homo sapiens, UniProt Q06187); experiment: Inhibition of Btk (unknown origin)
[11] = target: Leucine-rich repeat serine/threonine-protein kinase 2 (Homo sapiens, UniProt Q5S007); experiment: Inhibition of LRRK2 (unknown origin)
[12] = target: Epidermal growth factor receptor (Homo sapiens, UniProt P00533); experiment: Inhibition of EGFR (unknown origin)
Insulin receptor = Insulin receptor (Homo sapiens, UniProt P06213); experiment: Inhibition of IR (unknown origin)
[13] = target: T6, Interleukin-1 receptor-associated kinase 4 (Homo sapiens, UniProt Q9NWZ3); experiment: Inhibition of IRAK4 (unknown origin)
T6 sequence (Q9NWZ3 whole entry): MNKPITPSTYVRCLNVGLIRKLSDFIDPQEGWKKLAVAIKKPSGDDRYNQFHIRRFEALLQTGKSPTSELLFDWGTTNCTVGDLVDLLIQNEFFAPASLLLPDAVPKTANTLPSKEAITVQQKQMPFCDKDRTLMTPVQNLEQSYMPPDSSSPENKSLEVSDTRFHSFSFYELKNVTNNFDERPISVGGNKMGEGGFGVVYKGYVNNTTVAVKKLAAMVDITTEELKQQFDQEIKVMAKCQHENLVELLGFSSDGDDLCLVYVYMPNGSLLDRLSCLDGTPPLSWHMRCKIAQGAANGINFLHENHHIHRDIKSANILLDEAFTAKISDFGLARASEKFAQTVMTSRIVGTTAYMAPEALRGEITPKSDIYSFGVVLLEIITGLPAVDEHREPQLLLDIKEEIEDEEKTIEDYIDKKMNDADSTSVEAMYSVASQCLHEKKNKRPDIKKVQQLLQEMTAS

[14] = target: T7, Tyrosine-protein kinase Tec (Homo sapiens, UniProt P42680); experiment: Inhibition of Tec (unknown origin)
T7 sequence (P42680 whole entry): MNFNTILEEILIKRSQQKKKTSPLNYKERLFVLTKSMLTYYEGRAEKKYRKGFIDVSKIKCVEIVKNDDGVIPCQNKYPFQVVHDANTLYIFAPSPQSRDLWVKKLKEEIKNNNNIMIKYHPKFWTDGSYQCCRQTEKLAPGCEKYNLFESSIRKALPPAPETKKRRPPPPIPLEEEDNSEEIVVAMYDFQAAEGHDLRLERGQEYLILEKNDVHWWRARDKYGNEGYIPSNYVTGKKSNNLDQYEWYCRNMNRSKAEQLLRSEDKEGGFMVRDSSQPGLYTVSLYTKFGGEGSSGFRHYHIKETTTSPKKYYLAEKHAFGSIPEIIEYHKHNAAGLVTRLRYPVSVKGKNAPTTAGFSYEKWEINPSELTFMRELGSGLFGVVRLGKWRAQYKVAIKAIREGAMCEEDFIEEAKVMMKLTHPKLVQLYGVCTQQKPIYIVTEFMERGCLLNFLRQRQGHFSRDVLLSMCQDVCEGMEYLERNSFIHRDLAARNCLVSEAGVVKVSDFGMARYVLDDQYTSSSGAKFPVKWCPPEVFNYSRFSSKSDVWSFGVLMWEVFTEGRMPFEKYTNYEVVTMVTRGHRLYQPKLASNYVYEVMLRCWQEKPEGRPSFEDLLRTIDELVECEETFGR

[15] = target: T2, Tyrosine-protein kinase ITK/TSK; experiment: Inhibition of ITK (unknown origin)

T3 sequence (P06239 whole entry): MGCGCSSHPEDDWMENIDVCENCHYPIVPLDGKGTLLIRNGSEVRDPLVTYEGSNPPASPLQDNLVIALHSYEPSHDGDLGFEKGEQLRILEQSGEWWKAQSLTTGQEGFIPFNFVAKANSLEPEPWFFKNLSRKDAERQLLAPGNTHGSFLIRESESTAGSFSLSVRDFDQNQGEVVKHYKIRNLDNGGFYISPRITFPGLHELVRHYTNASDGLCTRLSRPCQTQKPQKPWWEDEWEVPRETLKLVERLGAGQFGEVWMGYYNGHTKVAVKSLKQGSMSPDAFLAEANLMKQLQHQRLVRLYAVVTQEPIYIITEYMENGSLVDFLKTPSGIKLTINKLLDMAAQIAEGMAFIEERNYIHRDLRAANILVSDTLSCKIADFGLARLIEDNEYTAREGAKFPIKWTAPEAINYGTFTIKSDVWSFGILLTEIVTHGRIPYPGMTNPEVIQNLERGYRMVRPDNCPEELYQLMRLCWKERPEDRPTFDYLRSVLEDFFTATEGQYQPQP
T1 sequence (Q96GD4 whole entry): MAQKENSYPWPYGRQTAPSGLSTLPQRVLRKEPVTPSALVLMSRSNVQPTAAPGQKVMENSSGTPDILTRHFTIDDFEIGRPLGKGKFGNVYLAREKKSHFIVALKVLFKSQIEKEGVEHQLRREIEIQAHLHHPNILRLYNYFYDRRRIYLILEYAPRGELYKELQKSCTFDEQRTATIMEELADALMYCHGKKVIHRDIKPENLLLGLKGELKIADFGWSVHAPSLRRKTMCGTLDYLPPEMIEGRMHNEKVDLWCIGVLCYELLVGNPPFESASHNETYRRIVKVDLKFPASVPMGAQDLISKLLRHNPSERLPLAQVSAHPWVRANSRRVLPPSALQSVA
Chain of Insulin receptor (P06213 28-758 limits assumed): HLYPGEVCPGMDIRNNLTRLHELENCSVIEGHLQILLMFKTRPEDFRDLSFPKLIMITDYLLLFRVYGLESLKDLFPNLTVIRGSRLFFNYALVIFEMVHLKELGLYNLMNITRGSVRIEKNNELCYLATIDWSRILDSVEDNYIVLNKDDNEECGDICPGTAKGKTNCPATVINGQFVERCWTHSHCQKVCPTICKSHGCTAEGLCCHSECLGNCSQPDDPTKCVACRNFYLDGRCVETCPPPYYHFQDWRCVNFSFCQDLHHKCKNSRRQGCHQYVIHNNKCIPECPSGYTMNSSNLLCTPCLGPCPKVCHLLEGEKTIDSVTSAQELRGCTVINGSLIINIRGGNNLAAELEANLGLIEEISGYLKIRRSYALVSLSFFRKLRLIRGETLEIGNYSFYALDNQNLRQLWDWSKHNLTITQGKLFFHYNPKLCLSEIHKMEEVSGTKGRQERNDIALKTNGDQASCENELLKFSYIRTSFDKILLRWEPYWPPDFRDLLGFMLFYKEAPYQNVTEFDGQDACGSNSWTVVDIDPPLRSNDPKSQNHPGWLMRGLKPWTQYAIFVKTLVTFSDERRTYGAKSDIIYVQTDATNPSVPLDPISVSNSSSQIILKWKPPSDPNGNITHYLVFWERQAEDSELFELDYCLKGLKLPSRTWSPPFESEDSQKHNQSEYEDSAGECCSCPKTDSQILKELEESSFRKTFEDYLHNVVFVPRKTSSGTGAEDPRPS
Chain of Insulin receptor (P06213 763-1382 limits assumed): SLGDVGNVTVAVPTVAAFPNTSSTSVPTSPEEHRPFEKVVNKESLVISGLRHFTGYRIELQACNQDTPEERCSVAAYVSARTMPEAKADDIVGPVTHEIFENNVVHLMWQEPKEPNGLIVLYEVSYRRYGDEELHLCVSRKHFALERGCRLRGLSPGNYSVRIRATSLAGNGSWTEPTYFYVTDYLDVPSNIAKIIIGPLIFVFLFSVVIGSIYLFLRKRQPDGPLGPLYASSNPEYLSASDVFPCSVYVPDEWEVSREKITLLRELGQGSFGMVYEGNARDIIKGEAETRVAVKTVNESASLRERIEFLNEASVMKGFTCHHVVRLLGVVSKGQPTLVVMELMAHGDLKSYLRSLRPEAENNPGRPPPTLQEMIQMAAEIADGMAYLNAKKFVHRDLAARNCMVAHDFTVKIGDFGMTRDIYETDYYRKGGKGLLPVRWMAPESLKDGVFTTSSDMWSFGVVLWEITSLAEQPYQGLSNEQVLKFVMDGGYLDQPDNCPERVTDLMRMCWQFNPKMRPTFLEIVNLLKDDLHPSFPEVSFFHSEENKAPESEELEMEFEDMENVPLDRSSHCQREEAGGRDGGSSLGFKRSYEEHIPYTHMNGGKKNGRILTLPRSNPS
Chain of Calcium/calmodulin-dependent protein kinase kinase 2 (Q96RR4 whole entry): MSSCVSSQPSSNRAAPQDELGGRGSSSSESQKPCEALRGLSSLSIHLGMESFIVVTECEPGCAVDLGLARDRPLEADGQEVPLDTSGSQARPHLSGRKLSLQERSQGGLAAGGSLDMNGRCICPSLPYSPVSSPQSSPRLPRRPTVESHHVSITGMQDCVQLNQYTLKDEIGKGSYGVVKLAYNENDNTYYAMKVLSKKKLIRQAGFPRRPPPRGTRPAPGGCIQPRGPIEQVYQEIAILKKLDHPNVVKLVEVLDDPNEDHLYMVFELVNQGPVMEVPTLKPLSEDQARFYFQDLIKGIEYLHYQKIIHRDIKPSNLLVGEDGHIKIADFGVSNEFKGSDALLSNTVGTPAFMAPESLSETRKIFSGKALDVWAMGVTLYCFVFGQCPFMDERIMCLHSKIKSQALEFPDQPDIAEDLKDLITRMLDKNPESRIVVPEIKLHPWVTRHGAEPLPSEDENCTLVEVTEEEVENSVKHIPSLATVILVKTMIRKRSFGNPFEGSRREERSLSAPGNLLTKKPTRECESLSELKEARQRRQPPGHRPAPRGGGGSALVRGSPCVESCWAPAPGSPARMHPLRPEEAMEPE
Chain of Tyrosine-protein kinase BTK (Q06187 whole entry): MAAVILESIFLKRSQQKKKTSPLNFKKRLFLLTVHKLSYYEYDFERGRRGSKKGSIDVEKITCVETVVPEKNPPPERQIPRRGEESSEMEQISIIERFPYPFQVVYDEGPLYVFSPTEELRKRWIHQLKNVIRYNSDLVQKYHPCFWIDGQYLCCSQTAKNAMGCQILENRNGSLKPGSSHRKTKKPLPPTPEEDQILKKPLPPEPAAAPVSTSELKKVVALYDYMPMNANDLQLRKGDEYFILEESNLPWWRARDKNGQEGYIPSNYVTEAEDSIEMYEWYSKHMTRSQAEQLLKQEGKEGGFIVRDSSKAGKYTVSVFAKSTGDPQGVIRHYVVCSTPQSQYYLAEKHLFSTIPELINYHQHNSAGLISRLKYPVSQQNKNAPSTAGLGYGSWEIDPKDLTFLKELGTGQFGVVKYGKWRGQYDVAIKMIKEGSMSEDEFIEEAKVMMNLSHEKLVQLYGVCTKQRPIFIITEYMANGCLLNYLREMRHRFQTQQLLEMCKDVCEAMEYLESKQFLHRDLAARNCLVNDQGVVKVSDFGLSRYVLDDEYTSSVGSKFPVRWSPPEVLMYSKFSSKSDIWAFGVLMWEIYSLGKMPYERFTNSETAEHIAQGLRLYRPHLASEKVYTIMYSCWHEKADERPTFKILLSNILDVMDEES
Chain of Epidermal growth factor receptor (P00533 whole entry): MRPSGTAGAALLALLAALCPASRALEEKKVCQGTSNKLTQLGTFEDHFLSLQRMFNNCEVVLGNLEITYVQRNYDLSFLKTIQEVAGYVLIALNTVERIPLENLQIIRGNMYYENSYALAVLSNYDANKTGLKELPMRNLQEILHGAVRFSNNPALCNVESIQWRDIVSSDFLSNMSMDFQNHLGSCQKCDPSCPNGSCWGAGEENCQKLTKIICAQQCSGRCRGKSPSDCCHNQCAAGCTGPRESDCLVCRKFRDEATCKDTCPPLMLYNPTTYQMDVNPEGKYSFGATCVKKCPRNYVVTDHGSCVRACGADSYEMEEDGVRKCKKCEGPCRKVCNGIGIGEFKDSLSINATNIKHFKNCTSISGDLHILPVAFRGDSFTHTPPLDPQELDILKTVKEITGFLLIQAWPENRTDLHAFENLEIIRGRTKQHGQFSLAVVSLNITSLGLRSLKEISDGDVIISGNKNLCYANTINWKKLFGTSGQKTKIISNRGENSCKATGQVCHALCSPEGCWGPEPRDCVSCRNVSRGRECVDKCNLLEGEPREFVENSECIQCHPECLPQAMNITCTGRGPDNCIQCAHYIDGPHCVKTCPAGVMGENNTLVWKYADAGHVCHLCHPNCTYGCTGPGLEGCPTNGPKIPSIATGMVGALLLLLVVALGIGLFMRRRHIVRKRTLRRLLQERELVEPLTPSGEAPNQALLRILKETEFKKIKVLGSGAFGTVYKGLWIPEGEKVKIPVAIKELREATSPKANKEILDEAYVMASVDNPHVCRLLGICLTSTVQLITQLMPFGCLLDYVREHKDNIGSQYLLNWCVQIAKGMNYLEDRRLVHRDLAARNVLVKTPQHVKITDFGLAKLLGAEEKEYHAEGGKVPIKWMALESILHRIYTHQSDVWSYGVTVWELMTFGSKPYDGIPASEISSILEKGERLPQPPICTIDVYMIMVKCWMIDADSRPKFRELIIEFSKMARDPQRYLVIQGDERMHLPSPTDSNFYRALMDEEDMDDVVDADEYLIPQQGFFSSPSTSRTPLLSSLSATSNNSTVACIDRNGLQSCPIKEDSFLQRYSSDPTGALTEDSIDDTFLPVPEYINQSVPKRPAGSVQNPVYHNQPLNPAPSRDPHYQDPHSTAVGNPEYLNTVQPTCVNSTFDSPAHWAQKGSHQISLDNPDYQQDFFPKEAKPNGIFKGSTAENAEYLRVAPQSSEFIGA

| Ki (Aurora kinase B [1]) [nM] | Ki [2] [nM] | Ki [3] [nM] | Compound | further results |
| --- | --- | --- | --- | --- |
| 100 | 0.251 | 100 | O[C@H]1CC[C@H](Nc2nc(Cc3ccccc3)cc(Nc3nc4cccnc4s3)n2)CC1 | – |
| > 20000 | 15.8 | 200 | COc1ccc2nc(Nc3cc(C(F)(F)c4ccc(F)cc4)nc(N[C@H]4CC[C@H](O)CC4)n3)sc2n1 | – |
| 501 | 3.98 | 126 | COc1ccc2nc(Nc3cc(Cc4ccccc4)nc(N[C@H]4CC[C@H](O)CC4)n3)sc2c1 | IC50 (PBMC): 25.1 nM |
| > 20000 | 3980 | 2510 | COc1ccc2nc(Nc3cc(C(F)(F)c4ccc(F)cc4)nc(N4CCC[C@H]4C(N)=O)n3)sc2c1 | – |
| 3160 | > 10000 | 316 | NC(=O)[C@@H]1CCCN1c1nc(Nc2ncc(Cc3ccccc3)s2)cc(C(F)(F)c2ccc(F)cc2)n1 | – |
| 79.4 | 0.251 | 63.1 | N#Cc1ccc2nc(Nc3cc(Cc4ccccc4)nc(N[C@H]4CC[C@H](O)CC4)n3)sc2c1 | – |
| > 20000 | 158 | 3160 | Cc1csc(Nc2cc(Cc3ccccc3)nc(N[C@H]3CC[C@H](O)CC3)n2)n1 | – |
| 398 | 0.631 | 100 | CCc1ccc2nc(Nc3cc(Cc4ccccc4)nc(N[C@H]4CC[C@H](O)CC4)n3)sc2c1 | IC50 (PBMC): 50.1 nM; IC50 (Aurora kinase B [4]): 398 nM; IC50 [5]: 39.8 nM; IC50 [6]: 126 nM; IC50 [7]: 158 nM; IC50 [8]: 200 nM; IC50 [9]: 79.4 nM; IC50 [10]: 316 nM; IC50 [11]: 398 nM; IC50 [12]: 631 nM; IC50 (Insulin receptor): 158 nM; IC50 [13]: 3.98 nM; IC50 [14]: 251 nM |
| 5010 | 501 | 501 | O[C@H]1CC[C@H](Nc2nc(Nc3ccc(Oc4ccc(F)cc4)cn3)cc(C(F)(F)c3ccc(F)cc3)n2)CC1 | – |
| 316 | 0.398 | 251 | Cc1ccc2nc(Nc3cc(Cc4ccccc4)nc(N[C@H]4CC[C@H](O)CC4)n3)sc2c1 | – |
| 2510 | 20 | 251 | COc1ccc2nc(Nc3cc(C(F)(F)c4ccc(F)cc4)nc(N[C@H]4CC[C@H](O)CC4)n3)sc2c1 | – |
| – | – | – | CS(=O)(=O)N1CCOC(CNc2nc(Cc3ccccc3)cc(Nc3cc(-c4ccco4)n[nH]3)n2)C1 (stereo not drawn) | Ki (Aurora kinase B [4]): 316 nM; Ki [15]: 6.31 nM; Ki [6]: 501 nM |
| 0.501 | 2 | 20 | Cc1cnc(Nc2cc(Cc3ccccc3)nc(N[C@H]3CC[C@H](O)CC3)n2)s1 | – |
| 20000 | > 10000 | > 25100 | Cc1cc2nc(Nc3cc(Cc4ccccc4)nc(N[C@H]4CC[C@H](O)CC4)n3)sc2cc1C | – |
| 398 | 1 | 316 | O[C@H]1CC[C@H](Nc2nc(Cc3ccccc3)cc(Nc3nc4ccccc4s3)n2)CC1 | – |
| 251 | 0.316 | 79.4 | O[C@H]1CC[C@H](Nc2nc(Cc3ccccc3)cc(Nc3nc4ccc(Cl)cc4s3)n2)CC1 | – |
| 316 | 0.2 | 79.4 | COc1ccc2nc(Nc3cc(Cc4ccccc4)nc(N[C@H]4CC[C@H](O)CC4)n3)sc2n1 | – |
| 79.4 | 6.31 | 100 | O[C@H]1CC[C@H](Nc2nc(Nc3cc4ccccc4cn3)cc(C(F)(F)c3ccc(F)cc3)n2)CC1 | – |
| – | – | – | NC(=O)C1CCN1c1nc(Cc2ccccc2)cc(Nc2cc(C3CCC3)n[nH]2)n1 (stereo not drawn) | Ki (Aurora kinase B [4]): 79.4 nM; Ki [15]: 15.8 nM; Ki [6]: 501 nM |
| 63.1 | 1.58 | 100 | CCc1ccc2nc(Nc3cc(Cc4ccccc4)nc(N[C@H]4CC[C@H](O)CC4)n3)sc2n1 | – |
| 251 | 12.6 | 50.1 | O[C@H]1CC[C@H](Nc2nc(Cc3ccccc3)cc(Nc3nc4ccc(C(F)(F)F)cc4s3)n2)CC1 | – |
| 5.01 | 63.1 | 100 | O[C@H]1CC[C@H](Nc2nc(Nc3ncc(Cc4ccccc4)s3)cc(C(F)(F)c3ccc(F)cc3)n2)CC1 | – |
| 631 | 794 | 15800 | O[C@H]1CC[C@H](Nc2nc(Nc3n[nH]c4ccccc34)cc(C(F)(F)c3ccc(F)cc3)n2)CC1 | – |
